Data set [1] concerns plexiform neurofibroma tumor tissues. In words: TUNEL staining of nerve tissues of treated mice. The class given is in vivo, mouse.
The next data set concerns soluble AXL (sAXL). In words: Mouse sAXL ELISA in plasma. As to conditions: 12 weeks of treatment; vs WT mice or vehicle treated Nf1flox/flox;PostnCre mice. Type of data set: in vivo. For orientation: An ELISA detects its analyte on a solid surface through an enzyme-linked reagent.
The format of data set [2] is in vivo, human. Particulars: baseline to cycle 12.
The test system of data set [3] is plexiform neurofibroma in Nf1^flox/flox;PostnCre mice. In words: Plexiform neurofibroma tumor burden and histopathology in Nf1flox/flox. Type of data set: in vivo, mouse.
A further data set addresses T1, DDR1 (Mus musculus, UniProt Q03146).
T1 sequence (Q03146 20-911): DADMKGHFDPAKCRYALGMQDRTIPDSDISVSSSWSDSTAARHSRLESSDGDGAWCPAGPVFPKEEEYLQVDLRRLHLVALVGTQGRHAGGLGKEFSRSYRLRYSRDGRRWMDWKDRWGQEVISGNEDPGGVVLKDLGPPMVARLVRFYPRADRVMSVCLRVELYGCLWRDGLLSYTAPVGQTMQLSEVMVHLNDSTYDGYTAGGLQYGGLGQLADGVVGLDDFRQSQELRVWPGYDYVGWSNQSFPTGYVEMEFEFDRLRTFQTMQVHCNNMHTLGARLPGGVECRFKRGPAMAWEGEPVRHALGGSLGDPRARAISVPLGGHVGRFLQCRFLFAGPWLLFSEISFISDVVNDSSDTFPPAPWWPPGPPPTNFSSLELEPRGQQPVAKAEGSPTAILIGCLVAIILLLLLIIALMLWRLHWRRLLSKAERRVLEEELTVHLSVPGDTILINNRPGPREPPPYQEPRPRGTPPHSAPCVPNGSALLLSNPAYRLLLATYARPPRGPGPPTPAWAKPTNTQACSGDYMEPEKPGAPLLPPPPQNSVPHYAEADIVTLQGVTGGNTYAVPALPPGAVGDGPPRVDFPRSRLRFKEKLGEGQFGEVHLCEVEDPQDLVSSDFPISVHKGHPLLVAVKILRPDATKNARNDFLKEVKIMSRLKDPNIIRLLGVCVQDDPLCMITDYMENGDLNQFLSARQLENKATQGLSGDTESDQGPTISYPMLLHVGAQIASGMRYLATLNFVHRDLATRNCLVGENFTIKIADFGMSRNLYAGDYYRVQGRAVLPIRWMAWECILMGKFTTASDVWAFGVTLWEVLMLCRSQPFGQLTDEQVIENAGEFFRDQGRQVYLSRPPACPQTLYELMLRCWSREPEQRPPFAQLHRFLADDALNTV
In words: MIB/MS kinome profiling of sciatic nerve tumor tissue after in vivo treatment. As to conditions: 7 days of sustained treatment vs vehicle.

Data set [4] addresses T2, AXL (Mus musculus, UniProt Q00993).
T2 sequence (Q00993 19-888): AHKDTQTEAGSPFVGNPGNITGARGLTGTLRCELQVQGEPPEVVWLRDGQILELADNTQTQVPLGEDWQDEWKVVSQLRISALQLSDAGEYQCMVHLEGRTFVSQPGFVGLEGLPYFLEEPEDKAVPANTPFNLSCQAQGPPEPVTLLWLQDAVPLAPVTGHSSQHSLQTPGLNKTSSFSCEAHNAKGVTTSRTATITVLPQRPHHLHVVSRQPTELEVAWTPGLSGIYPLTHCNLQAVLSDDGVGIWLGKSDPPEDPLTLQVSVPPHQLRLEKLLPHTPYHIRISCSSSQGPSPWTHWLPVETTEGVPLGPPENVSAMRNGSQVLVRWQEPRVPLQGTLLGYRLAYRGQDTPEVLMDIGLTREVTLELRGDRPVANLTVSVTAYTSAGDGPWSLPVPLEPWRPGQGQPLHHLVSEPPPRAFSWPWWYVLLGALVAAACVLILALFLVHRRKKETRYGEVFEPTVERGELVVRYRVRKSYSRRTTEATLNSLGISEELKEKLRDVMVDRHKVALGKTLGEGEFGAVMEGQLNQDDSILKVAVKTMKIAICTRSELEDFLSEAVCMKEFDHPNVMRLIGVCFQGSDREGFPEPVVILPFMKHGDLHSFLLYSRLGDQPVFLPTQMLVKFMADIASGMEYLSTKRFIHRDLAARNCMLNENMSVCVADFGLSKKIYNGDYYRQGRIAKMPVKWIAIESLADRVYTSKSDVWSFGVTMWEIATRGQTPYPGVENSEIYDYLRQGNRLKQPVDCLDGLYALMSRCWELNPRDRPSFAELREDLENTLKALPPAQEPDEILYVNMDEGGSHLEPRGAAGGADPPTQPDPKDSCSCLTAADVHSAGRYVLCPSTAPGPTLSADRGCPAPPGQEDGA
As to the kind of experiment: AXL in tumor bearing nerve tissue of treated mice. Type of data set: in vivo. Particulars: 12 weeks of treatment vs vehicle; IHC and western blot.

For the next data set, the target named is T3, DDR2 (Mus musculus, UniProt Q62371).
T3 sequence (Q62371 22-854): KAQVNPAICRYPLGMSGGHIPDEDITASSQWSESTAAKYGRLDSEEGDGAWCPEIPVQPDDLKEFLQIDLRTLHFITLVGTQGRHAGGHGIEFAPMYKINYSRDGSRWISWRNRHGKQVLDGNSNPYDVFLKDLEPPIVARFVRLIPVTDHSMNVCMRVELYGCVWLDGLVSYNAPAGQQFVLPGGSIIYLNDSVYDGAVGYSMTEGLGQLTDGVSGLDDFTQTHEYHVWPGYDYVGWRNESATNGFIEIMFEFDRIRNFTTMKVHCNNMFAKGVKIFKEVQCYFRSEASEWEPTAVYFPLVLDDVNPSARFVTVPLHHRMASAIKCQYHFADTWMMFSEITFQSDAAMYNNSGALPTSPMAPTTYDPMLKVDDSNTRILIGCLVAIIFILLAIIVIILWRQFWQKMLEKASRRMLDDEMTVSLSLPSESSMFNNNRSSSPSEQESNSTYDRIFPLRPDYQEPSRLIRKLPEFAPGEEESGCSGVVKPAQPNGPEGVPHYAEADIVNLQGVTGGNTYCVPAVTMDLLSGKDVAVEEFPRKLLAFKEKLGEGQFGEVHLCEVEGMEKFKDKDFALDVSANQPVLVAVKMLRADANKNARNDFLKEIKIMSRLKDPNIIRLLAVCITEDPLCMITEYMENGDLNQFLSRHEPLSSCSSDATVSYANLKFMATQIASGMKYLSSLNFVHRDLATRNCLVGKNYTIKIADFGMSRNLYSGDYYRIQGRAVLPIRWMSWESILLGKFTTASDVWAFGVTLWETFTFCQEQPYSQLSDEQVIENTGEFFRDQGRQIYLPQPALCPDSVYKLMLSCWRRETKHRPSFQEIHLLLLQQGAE
As to the kind of experiment: MIB/MS kinome profiling of sciatic nerve tumor tissue after in vivo treatment. As to conditions: 7 days of sustained treatment vs vehicle.

Data set [5] has as its target T2, AXL. The description is as above. As to conditions: 7 days of sustained treatment vs vehicle.
Data set [6] has as its system malignant peripheral nerve sheath tumor (MPNST) murine model. As to conditions: cabozantinib and mirdametinib; Nf1 and Trp53 compound mutations; cited from earlier work.
Data set [7] deals with NF1-related plexiform neurofibroma. Type of data set: in vivo, human.
Data set [8] deals with human immortalized NF1−/− Schwann cells (iPNF95.6). In words: Caspase 3/7 Glo apoptosis assay. The class given is cell-based. As to conditions: 24 hours; cabozantinib 39 nM to 5 μM; Navitoclax 1 μM positive control.
The test system of data set [9] is AXL. As to the kind of experiment: pAXL western blot after GAS6 stimulation. Type of data set: cell-based. As to conditions: GAS6 200-250 ng/mL; cabozantinib 1000-2500 nM; Schwann cells, fibroblasts, ECFCs. (Immunoblotting shows a protein as a band on a membrane.)
The format of data set [10] is in vivo, mouse.
The nature of data set [11]: Phase 2 trial NCT02101736: safety and tolerability. Further details: species or system human. As to conditions: in vivo.
Data set [12] in a line: Phase 2 trial NCT02101736: clinical pharmacokinetics. Type of data set: in vivo. Particulars: 40 mg dose, human plasma.
The subject of the next data set is plexiform neurofibroma. As to conditions: cited from earlier work.

Several values for one entry are separate records, joined by “and”; a condition that tells them apart may be missing. Identical values can stand only once.

As usually defined, the Tmax is the time at which the peak concentration occurs. For `COc1cc2nccc(Oc3ccc(NC(=O)C4(C(=O)Nc5ccc(F)cc5)CC4)cc3)c2cc1OC` [cabozantinib], in [1], the “apoptosis in nerve tissues (TUNEL staining)” value is reported as “negative for TUNEL staining”. For the same compound, the sAXL in plasma entry in the data set with soluble AXL (sAXL) is recorded as “significantly elevated”. Also, the “mean decrease in worst tumor pain intensity” value in [2] (responder group) is given as 3 points. Besides, the “reduction in reported tumor pain (NRS-11), LSM estimate” value in data set [2] (responders, p<0.0001) is 3.00. Also, the “change in PedsQL NF1 general pain and hurt scale, LSM estimate” value in data set [2] (total sample, p=0.0036, improvement) was −14.98. Besides, in data set [3] (15mg/kg daily oral gavage, 12 weeks, relative to vehicle control), the “reduction of number of PN per mouse” value is given as “approximately 60%”. The “reduction of mean volume of the proximal peripheral nerve roots” value in data set [3] (15mg/kg daily oral gavage, 12 weeks, vs vehicle) was found to be 38%. Besides, the mast cell infiltration entry in [3] (toluidine blue stained sections, 12 weeks treatment vs vehicle, P = 0.1013) was “not significantly changed”. Besides, the “neoangiogenesis (blood vessels, CD31 immunohistochemistry)” value in [3] (treated tumors versus vehicle control, P < 0.0001) is “significant reduction”. Also, the “MIB binding of DDR1” value on DDR1 was “loss of MIB binding”. The “AXL in treated tissues” value on AXL [4] is listed as “significant decline”. Further, at DDR2, the “MIB binding of DDR2” value is “loss of MIB binding”. Also, the “MIB binding of AXL” value at AXL [5] is recorded as “loss of MIB binding”. For the same compound, the “tumor growth in MPNST murine model” value in data set [6] is on record as “reduce growth”. Also, the “disease progression while on study” value in data set [7] (19 evaluable participants) was “No patient had disease progression”. In data set [7] (19 evaluable participants, 40 mg escalated to 60 mg once daily), the “partial response rate (PR, ≥20% reduction in target lesion volume by MRI)” value is 42% and 42.1%. Also, in data set [7] (in vivo), the “participants in whom maximal tumor response was not achieved until cycle 18” value came out at 4 and the “participants in whom maximal tumor response was not achieved until cycle 24” value is given as 2. Also, the “number of participants with PR” value in [7] (of the 19 participants evaluable for response) is reported as 8. For the same compound, the “apoptosis (caspase 3/7 activity)” value in [8] is recorded as “does not induce apoptosis”. Also, in the data set on AXL [9], the “Gas6 mediated activation of AXL at the biochemical level (pAXL)” value is listed as “inhibited”. In data set [10] (Nf1flox/flox;PostnCre, mouse, plasma, po, 15 mg/kg), the Tmax worked out at 2 h. For the same compound, in data set [10] (single 15mg/kg oral gavage dose, Nf1flox/flox;PostnCre mice, plasma), the “maximum concentration in plasma” value was found to be 6800 ng/mL. The “maximal concentration in nerve tissue” value in data set [10] (single 15mg/kg oral gavage dose, nerve tissue) is 636 ng/g. Moreover, in data set [11], the “participants requiring dose reductions while on study” value is “Seven”, the “participants with grade 3 adverse events” value is 8 and the “patients requiring dose reduction or discontinuation of therapy due to AEs” value is reported as “Nine”. The “dose-normalized mean trough level” value in [12] (Cycle 1 Day 15) was 16.5 ng/mL/mg. Besides, in data set [12] (end of Cycle 1), the “dose-normalized mean trough level” value worked out at 20.7 ng/mL/mg.
`CC1(C)CCC(c2ccc(Cl)cc2)=C(CN2CCN(c3ccc(C(=O)NS(=O)(=O)c4ccc(N[C@H](CCN5CCOCC5)CSc5ccccc5)c(S(=O)(=O)C(F)(F)F)c4)cc3)CC2)C1` [Navitoclax]: in [8], the “apoptosis (caspase 3/7 activity)” value is “robust increase”.
As for `Cn1cnc2c(F)c(Nc3ccc(Br)cc3Cl)c(C(=O)NOCCO)cc21` [selumetinib], the partial response rate in the data set with plexiform neurofibroma (children with progressive PN) is listed as 74%.
As to pegylated interferon alfa-2b, the “clinical outcome in PN” value in the data set with plexiform neurofibroma is given as “only prolonged PN time to progression”.
In the case of `O=C(NOC[C@H](O)CO)c1ccc(F)c(F)c1Nc1ccc(I)cc1F` [mirdametinib], in data set [6], the “tumor growth in MPNST murine model” value is “reduce growth”.
